Each structure is given as a SMILES string. Entries after “also recorded” stand apart in the source; their conditions may differ.

1 compound from patent US9533973B2, “Allosteric modulators of 5-hydroxytryptamine 2C receptor (5-HT2CR)” (THE BOARD OF REGENTS OF THE UNIVERSITY OF TEXAS SYSTEM, priority 2011, dated 2017) can be followed below.

One data set has as its target T1, 5-HT2CR (Homo sapiens, UniProt P28335).
T1 sequence (P28335 33-458): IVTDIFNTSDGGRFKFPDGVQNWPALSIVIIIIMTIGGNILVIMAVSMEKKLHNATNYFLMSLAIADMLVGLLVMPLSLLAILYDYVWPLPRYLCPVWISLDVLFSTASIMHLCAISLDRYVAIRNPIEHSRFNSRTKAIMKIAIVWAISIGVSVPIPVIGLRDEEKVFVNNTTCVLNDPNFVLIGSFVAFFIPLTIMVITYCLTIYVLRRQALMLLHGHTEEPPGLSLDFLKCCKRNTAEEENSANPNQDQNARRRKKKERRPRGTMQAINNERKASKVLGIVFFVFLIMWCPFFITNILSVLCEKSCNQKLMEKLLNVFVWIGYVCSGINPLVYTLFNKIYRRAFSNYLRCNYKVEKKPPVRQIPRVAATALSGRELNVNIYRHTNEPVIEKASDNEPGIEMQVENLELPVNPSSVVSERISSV
The data set can be described thus: 5-HT induced intracellular calcium (Cai++) release assay in live 5-HT2CR-CHO cells. Further details: expressed in transfected cells. Type of data set: cell-based. Conditions: 5-HT2CR-CHO cells. As to the method: Selected results for the biological characterization of the synthesized compounds can be found in Ding et al., ACS Chem. Neurosci., 3, 538-545, 2012, and also described herein. The biological activity is assessed using an intracellular calcium (Cai^++) release assay. The best-characterized intracellular signaling pathway of the 5-HT2CR is the activation of phospholipase C (PLCβ) via Gαq/11 proteins and the production of diacylglycerol (DAG) and inositol-1,4,5-trisphosphate (IP3), leading to increased Cai^++ release from intracellular stores (Berg et al., Neuropharmacology 55, 969-76, 2008). Functional characterization of our synthetic PNU-69176E (CYD-1-78-2) and its diastereomer CYD-1-78-1 was determined by utilizing an Cai^++ release assay in live cells in which Cai^++ levels can be regarded as an outcome measure of activation of the 5-HT2CR signaling pathway (Berg et al., Neuropharmacology 55, 969-76, 2008). […] In addition, 1 nM of compound CYD-1-78-2 enhanced the Cai^++ response at low concentrations of 5-HT [10^11-3×10^−10 M; F(15,55)=16.73, p<0.01; FIG. 2]. […] Neither compound CYD-1-78-2 [F(10,68)=0.81, n.s.] nor the diastereomer CYD-1-78-1 [F(10,34)=0.76, n.s.] in concentrations up to 10^−5 M induced Cai^++ release in the 5-HT2CR—CHO cells in the absence of 5-HT (FIG. 3). This profile for compounds CYD-1-78-2 and −1 in 5-HT2CR—CHO cells was distinguished from that seen in 5-HT2AR—CHO cells in which neither compound alone or in the presence of 5-HT (compound CYD-1-78-1, F(10,43)=0.78; compound CYD-1-78-2, F(10,55)=1.27; FIG. 4) altered Cai^++ release (Ding et al., ACS Chem. Neurosci. 3, 538-545, 2012).
The Chinese hamster ovary (CHO) cell line stably transfected with 5-HT2CR was a generous gift of K. Berg and W. Clarke (University of Texas Health Science Center, San Antonio) (K. A. Berg, W. P. Clarke, C. Sailstad, A. Saltzman and S. Maayani, Mol. Pharmacol. 1994, 46 (3), 477-484; Ding et al., ACS Chem. Neurosci. 3, 538-545, 2012). Cells were grown at 37° C., 5% CO2 and 85% relative humidity in GlutaMax α-MEM (Invitrogen, Carlsbad Calif.), 5% fetal bovine serum (Atlanta Biologicals, Atlanta Ga.), 100 μg/mL hygromycin (Mediatech, Manassas Va.) and were passaged when they reached 80% confluence.
Changes in Cai^++ levels were determined using the calcium sensitive dye Calcium 4 (FLIPR No-wash kit, Molecular Devices, Sunnyvale, Calif., part #R8142). Cells were plated in serum-replete medium at 20,000 cells/well in black-sided, clear bottom 96-well tissue culture plates and were fed ˜24 hrs later with serum-free medium. Following overnight incubation, medium was removed and replaced with 40 μL of fresh serum-free medium plus 40 μL Calcium 4 dye solution in Hank's balanced saline solution (HBSS, without CaCl2 or MgCl2) supplemented with 2.5 mM water soluble probenicid (Invitrogen) to inhibit extracellular transport of the dye. Plates were incubated for 60 min at 37° C. and 60 min at room temperature in the dark. Fluorescence (λex=485 nm, λem=525 nm) was measured with a FlexStation3 (Molecular Devices). A baseline was established for each well during the initial segment of each run. Addition of 20 μL of 5× concentrated tested compound occurred at 17 sec and fluorescence was recorded every 1.7 sec for 90 sec to determine any innate agonist activity. This first round of 90 sec recordings provided a 20 min preincubation period. […] Maximum peak height was determined by the FlexStation software (SoftMax Pro 5.2) for each well and was normalized to vehicle control.
For orientation: Calcium flux is commonly read through the fluorescence of an indicator in the cells.

A short description of data set [1]: Solubility of representative compounds (Table 1). Type of data set: physicochemical. To be noted: solvents listed.

Consider `CS[C@H]1OC([C@@H](NC(=O)C2CNCCN2c2ccccc2)[C@H](C)Cl)[C@H](O)[C@H](O)[C@H]1O` (stereo partly drawn) [CYD-1-82, 1-Phenyl-piperazine-2-carboxylic acid [2-chloro-1-(3,4,5-trihydroxy-6-methylsulfanyl-tetrahydro-pyran-2-yl)-propyl]amide], for which the “effect on 5-HT-induced Cai++ release” value on 5-HT2CR (positive allosteric modulation) is “enhanced; also recorded: potentiated”. Moreover, the half-maximal effective concentration (EC50) at 5-HT2CR (5-HT-induced Cai++ release) was determined as 8 ± 4 nM. Besides, in data set [1], the Solubility result is on record as “EtOH, DMSO”.

The EC50 is the midpoint of the concentration-response curve.
